Laboratory results published in paper PMC3639963, “A New Class of Small Molecule Inhibitor of BMP Signaling” (PLoS ONE, 2013).

Columns and labels:
Assay in all cases: Nanosyn kinase profiling
Format in all cases: biochemical
Conditions in all cases: read-out: Percentage inhibition; for inhibition at 0.1 µM: 0.1 µM inhibitor; for inhibition at 1 µM: 1 µM inhibitor
DYRK1B = molecular target: T1, DYRK1B (Homo sapiens, UniProt Q9Y463)
T1 construct: purchased Nanosyn (enzymatic panel); SGC in-house recombinant human kinases (DSF panel); Invitrogen (ALK1-6)
How it was run: (§1)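 Percent inhibition of each kinase was measured with the inhibitor at 0.1 µM and at 1 µM, as part of a 200-kinase human selectivity panel.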

EPHA4 = molecular target: T2, EPHA4 (Homo sapiens, UniProt P54764)
T2 construct: purchased Nanosyn (enzymatic panel); SGC in-house recombinant human kinases (DSF panel); Invitrogen (ALK1-6)
T2 sequence (P54764 20-986): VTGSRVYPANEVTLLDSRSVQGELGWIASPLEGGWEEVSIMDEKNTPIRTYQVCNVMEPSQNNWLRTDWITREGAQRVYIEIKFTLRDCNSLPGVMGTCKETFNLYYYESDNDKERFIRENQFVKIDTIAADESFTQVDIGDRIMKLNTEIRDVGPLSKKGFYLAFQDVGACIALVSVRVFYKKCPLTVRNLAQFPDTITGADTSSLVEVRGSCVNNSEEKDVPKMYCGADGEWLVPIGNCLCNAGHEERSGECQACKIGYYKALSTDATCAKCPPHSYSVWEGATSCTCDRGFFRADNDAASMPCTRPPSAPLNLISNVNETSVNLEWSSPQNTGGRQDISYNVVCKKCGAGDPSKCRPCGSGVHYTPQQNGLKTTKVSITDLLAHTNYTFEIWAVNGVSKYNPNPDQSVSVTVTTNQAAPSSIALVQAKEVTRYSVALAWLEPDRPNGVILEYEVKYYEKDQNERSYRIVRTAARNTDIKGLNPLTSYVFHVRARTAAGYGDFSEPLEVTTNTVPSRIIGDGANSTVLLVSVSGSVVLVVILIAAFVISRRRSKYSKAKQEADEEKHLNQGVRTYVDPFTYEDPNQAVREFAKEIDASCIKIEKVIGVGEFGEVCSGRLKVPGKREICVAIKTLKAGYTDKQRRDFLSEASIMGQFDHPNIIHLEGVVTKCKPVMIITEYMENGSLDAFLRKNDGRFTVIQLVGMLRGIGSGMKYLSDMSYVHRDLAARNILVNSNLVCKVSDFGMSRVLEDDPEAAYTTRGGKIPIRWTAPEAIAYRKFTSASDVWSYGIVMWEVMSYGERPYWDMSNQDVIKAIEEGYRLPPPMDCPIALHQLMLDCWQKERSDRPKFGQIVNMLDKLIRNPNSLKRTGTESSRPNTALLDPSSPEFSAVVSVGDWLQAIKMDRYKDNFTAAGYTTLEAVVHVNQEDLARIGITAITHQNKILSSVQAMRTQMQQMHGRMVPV
How it was run: as §1

FYN = molecular target: T3, FYN (Homo sapiens, UniProt P06241)
T3 construct: purchased Nanosyn (enzymatic panel); SGC in-house recombinant human kinases (DSF panel); Invitrogen (ALK1-6)
T3 sequence (P06241 whole entry): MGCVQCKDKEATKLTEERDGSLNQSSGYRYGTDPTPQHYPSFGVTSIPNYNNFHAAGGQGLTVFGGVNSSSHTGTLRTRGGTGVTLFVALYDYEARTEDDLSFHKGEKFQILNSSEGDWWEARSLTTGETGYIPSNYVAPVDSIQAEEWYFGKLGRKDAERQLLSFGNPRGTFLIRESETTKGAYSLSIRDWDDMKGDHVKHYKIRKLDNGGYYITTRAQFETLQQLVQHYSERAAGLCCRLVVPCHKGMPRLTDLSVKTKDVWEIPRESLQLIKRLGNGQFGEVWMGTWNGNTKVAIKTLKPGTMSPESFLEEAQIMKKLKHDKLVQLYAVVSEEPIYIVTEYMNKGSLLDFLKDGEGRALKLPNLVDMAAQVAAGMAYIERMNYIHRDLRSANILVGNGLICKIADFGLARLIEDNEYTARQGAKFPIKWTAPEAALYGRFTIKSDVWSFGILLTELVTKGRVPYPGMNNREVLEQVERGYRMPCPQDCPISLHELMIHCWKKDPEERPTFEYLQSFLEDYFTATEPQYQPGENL
How it was run: as §1

GRK7 = molecular target: T4, GRK7 (Homo sapiens, UniProt Q8WTQ7)
T4 construct: purchased Nanosyn (enzymatic panel); SGC in-house recombinant human kinases (DSF panel); Invitrogen (ALK1-6)
T4 sequence (Q8WTQ7 1-553): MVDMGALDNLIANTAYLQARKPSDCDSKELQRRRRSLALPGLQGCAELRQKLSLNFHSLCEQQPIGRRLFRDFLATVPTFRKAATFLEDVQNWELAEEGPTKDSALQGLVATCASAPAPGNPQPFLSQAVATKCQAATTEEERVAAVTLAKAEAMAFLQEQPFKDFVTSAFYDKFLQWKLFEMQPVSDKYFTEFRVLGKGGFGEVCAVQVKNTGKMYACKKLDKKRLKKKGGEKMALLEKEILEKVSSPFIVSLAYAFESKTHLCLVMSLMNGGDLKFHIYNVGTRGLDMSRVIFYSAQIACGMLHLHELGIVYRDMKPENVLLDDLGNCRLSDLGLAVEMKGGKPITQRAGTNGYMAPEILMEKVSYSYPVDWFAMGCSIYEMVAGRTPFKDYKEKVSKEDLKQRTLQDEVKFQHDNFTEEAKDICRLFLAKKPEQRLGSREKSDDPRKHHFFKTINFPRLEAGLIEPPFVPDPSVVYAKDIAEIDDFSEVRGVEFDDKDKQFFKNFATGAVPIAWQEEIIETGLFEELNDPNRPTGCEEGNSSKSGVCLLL
How it was run: as §1

HCK = molecular target: T5, HCK (Homo sapiens, UniProt P08631)
T5 construct: purchased Nanosyn (enzymatic panel); SGC in-house recombinant human kinases (DSF panel); Invitrogen (ALK1-6)
T5 sequence (P08631 whole entry): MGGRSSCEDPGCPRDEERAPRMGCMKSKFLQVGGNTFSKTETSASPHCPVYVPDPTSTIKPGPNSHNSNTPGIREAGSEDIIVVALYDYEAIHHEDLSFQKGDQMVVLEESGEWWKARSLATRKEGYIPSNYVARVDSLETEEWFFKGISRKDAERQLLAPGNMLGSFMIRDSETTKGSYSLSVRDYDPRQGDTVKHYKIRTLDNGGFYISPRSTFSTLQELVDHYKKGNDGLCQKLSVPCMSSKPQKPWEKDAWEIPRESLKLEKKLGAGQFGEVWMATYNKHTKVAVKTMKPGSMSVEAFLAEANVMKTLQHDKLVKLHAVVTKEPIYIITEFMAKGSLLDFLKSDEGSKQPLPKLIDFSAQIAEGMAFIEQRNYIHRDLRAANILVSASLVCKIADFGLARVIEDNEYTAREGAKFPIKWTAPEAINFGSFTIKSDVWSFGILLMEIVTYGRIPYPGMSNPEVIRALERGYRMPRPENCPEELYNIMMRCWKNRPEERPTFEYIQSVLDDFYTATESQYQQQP
How it was run: as §1

HIPK1 = molecular target: T6, HIPK1 (Homo sapiens, UniProt Q86Z02)
T6 construct: purchased Nanosyn (enzymatic panel); SGC in-house recombinant human kinases (DSF panel); Invitrogen (ALK1-6)
T6 sequence (Q86Z02 whole entry): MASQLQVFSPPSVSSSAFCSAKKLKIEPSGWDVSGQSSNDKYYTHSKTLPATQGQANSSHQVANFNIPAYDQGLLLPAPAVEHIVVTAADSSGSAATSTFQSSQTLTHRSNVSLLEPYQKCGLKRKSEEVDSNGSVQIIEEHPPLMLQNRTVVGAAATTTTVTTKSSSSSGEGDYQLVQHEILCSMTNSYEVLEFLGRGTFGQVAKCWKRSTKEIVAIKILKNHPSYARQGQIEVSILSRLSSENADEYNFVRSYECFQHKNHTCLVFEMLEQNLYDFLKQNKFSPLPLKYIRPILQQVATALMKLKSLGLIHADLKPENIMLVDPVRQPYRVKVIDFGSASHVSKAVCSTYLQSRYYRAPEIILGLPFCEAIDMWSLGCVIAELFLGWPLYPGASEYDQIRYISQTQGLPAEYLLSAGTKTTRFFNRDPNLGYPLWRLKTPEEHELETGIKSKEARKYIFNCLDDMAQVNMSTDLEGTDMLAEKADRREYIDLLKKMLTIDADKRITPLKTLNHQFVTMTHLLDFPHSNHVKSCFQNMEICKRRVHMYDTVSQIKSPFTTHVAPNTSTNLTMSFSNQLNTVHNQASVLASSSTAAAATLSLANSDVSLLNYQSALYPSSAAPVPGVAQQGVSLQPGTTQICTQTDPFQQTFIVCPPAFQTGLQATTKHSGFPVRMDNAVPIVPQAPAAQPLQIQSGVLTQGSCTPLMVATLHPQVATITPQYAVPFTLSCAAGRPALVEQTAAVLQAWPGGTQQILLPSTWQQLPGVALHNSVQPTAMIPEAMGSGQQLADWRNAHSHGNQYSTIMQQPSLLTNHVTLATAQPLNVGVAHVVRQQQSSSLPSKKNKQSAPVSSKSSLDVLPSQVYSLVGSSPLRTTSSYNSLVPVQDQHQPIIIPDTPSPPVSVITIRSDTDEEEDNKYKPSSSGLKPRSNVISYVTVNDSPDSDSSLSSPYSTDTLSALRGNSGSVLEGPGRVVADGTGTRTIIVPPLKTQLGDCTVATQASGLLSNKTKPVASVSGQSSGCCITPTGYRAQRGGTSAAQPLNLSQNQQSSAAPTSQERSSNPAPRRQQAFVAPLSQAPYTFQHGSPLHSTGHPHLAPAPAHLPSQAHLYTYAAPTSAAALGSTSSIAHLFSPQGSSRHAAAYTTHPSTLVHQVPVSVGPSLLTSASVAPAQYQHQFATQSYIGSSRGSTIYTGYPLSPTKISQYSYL
How it was run: as §1

MSK2 = molecular target: T7, MSK2 (Homo sapiens, UniProt O75676)
T7 construct: purchased Nanosyn (enzymatic panel); SGC in-house recombinant human kinases (DSF panel); Invitrogen (ALK1-6)
T7 sequence (O75676 whole entry): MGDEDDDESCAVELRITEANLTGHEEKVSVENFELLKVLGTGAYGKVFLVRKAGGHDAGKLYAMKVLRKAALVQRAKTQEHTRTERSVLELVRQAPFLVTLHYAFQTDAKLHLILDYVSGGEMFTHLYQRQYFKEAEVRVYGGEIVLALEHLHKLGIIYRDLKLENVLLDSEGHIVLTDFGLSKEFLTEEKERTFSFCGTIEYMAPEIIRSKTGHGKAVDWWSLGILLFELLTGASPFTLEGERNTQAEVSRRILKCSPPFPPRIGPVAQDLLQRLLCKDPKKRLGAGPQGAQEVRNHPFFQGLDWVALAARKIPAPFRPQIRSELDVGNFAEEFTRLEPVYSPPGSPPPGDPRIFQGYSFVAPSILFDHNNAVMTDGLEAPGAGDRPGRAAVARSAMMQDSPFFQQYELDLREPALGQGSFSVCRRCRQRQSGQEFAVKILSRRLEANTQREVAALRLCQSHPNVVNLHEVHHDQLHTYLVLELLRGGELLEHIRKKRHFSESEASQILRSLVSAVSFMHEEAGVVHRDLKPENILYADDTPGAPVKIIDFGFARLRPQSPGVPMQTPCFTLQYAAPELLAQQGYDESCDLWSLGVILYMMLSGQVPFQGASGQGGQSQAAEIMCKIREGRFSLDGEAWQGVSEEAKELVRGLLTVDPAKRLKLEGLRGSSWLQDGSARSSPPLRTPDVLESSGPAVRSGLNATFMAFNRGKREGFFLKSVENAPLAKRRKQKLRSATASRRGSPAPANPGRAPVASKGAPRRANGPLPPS
How it was run: as §1

PAK5 = molecular target: T8, PAK5 (Homo sapiens, UniProt Q9P286)
T8 construct: purchased Nanosyn (enzymatic panel); SGC in-house recombinant human kinases (DSF panel); Invitrogen (ALK1-6)
T8 sequence (Q9P286 whole entry): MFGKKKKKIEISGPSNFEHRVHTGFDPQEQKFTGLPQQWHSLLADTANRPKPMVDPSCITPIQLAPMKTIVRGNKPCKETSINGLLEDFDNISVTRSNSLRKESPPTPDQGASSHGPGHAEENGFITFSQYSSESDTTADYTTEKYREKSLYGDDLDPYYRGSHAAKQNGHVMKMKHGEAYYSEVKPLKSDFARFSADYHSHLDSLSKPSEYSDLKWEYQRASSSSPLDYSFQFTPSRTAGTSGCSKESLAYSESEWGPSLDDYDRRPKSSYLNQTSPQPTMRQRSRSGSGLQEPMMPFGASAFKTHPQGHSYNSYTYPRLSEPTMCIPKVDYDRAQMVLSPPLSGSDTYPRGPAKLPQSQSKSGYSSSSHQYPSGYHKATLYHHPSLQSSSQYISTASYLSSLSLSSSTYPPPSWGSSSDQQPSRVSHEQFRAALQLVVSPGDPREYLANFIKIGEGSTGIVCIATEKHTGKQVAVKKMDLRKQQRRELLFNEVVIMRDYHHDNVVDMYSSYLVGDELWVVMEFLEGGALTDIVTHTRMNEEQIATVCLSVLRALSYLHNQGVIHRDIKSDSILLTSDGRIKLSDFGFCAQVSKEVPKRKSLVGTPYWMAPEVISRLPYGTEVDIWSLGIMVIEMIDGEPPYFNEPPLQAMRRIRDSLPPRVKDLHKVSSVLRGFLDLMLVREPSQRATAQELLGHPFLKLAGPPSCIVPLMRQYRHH
How it was run: as §1

PIM2 = molecular target: T9, PIM2 (Homo sapiens, UniProt Q9P1W9)
T9 construct: purchased Nanosyn (enzymatic panel); SGC in-house recombinant human kinases (DSF panel); Invitrogen (ALK1-6)
T9 sequence (Q9P1W9 whole entry): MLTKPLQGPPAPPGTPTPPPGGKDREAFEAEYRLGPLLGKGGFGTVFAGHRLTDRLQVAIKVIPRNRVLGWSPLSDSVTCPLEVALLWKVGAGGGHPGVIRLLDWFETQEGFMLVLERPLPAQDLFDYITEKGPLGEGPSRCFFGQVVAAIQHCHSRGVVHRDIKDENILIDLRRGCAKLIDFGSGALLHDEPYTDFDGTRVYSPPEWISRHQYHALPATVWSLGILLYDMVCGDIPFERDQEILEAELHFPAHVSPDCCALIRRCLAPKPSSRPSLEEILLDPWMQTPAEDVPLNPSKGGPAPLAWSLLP
How it was run: as §1

PKCα = molecular target: T10, PKCα (Homo sapiens, UniProt P17252)
T10 construct: purchased Nanosyn (enzymatic panel); SGC in-house recombinant human kinases (DSF panel); Invitrogen (ALK1-6)
How it was run: as §1

RSK2 = molecular target: T11, RSK2 (Homo sapiens, UniProt P51812)
T11 construct: purchased Nanosyn (enzymatic panel); SGC in-house recombinant human kinases (DSF panel); Invitrogen (ALK1-6)
How it was run: as §1

SYK = molecular target: T12, SYK (Homo sapiens, UniProt P43405)
T12 construct: purchased Nanosyn (enzymatic panel); SGC in-house recombinant human kinases (DSF panel); Invitrogen (ALK1-6)
How it was run: as §1

TYRO3 = molecular target: T13, TYRO3 (Homo sapiens, UniProt Q06418)
T13 construct: purchased Nanosyn (enzymatic panel); SGC in-house recombinant human kinases (DSF panel); Invitrogen (ALK1-6)
T13 sequence (Q06418 41-890): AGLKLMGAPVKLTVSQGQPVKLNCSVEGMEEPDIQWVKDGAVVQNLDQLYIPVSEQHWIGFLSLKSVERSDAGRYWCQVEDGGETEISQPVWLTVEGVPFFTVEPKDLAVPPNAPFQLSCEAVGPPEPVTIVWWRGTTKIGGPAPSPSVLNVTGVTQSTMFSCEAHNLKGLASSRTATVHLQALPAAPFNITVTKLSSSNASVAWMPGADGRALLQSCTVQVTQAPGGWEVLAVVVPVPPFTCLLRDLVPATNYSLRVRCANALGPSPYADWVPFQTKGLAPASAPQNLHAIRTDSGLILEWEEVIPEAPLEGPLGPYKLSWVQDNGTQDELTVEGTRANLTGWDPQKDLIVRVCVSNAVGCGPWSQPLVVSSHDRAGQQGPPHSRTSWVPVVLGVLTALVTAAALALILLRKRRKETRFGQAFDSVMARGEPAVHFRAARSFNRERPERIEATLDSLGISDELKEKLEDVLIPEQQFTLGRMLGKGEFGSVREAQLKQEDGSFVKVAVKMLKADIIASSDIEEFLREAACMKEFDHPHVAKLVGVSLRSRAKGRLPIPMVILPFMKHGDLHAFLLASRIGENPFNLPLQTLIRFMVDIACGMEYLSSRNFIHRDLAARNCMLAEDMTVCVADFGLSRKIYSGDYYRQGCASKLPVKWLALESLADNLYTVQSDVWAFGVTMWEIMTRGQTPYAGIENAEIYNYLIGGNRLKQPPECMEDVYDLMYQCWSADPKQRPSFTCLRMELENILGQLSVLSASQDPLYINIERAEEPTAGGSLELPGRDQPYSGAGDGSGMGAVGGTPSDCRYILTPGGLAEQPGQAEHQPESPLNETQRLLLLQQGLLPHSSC
How it was run: as §1

Compound | inhibition at 0.1 µM (DYRK1B) | inhibition at 1 µM (DYRK1B) | inhibition at 0.1 µM (EPHA4) | inhibition at 1 µM (EPHA4) | inhibition at 0.1 µM (FYN) | inhibition at 1 µM (FYN) | inhibition at 0.1 µM (GRK7) | inhibition at 1 µM (GRK7) | inhibition at 0.1 µM (HCK) | inhibition at 1 µM (HCK) | inhibition at 0.1 µM (HIPK1) | inhibition at 1 µM (HIPK1) | inhibition at 0.1 µM (MSK2) | inhibition at 1 µM (MSK2) | inhibition at 0.1 µM (PAK5) | inhibition at 1 µM (PAK5) | inhibition at 0.1 µM (PIM2) | inhibition at 1 µM (PIM2) | inhibition at 0.1 µM (PKCα) | inhibition at 1 µM (PKCα) | also measured
COc1cc(-c2cc(-c3cccc(O)c3)cnc2N)cc(OC)c1OC [K02288, 3-[6-amino-5-(3,4,5-trimethoxy-phenyl)-pyridin-3-yl]-phenol] | 2.6% | 6% | -2% | 17% | 10% | 43% | 0.2% | -3% | 8.9% | 51% | 1.7% | 3.1% | -1% | 1% | -1% | -1% | 0.9% | 2.3% | 0.2% | 2.2% | inhibition at 0.1 µM (RSK2): 0.8%; inhibition at 1 µM (RSK2): 2.2%; inhibition at 0.1 µM (SYK): 0%; inhibition at 1 µM (SYK): -2%; inhibition at 0.1 µM (TYRO3): 1.8%; inhibition at 1 µM (TYRO3): 19%
c1ccc2c(-c3cnn4cc(-c5ccc(N6CCNCC6)cc5)cnc34)ccnc2c1 [LDN-193189] | 7.1% | 41% | 7.1% | 10% | 18% | 60% | 1.8% | 0.8% | 9.7% | 33% | 0.6% | 4.4% | 0.9% | 0.8% | 6.2% | 8.5% | 0% | 0% | 1% | 1.1% | inhibition at 0.1 µM (RSK2): 1.2%; inhibition at 1 µM (RSK2): 5.4%; inhibition at 0.1 µM (SYK): -1%; inhibition at 1 µM (SYK): -12%; inhibition at 0.1 µM (TYRO3): 13%; inhibition at 1 µM (TYRO3): 58%
